# Test results as given in ChEMBL document CHEMBL1201862, “PubChem BioAssay data set” (2004).
#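 In this assay, cells in 96-well plates receive the compound at five concentrations for 48 hours. Endpoints are linearly interpolated between the surrounding concentrations. Here, GI50 denotes the concentration required for 50% inhibition of growth.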 Active and inactive are the calls of the source. No stated cut-off is given here; in the data, active = GI50 up to about 1.1 µM and inactive = higher.
# Columns and labels:
# Assay in all cases: NCI anticancer screen, dose series, 48 h
# LOX IMVI = system: LOX IMVI
# NCI-H460 = system: NCI-H460
# SN12C = system: SN12C
# PC-3 = system: PC-3
# A549 = system: A549
# MOLT-4 = system: MOLT-4
# HT-29 = system: HT-29
# MCF7 = system: MCF7
# CCRF-CEM = system: CCRF-CEM
# ACHN = system: ACHN
# T47D = system: T47D
# SF-268 = system: SF-268
# HOP-62 = system: HOP-62
# SK-MEL-5 = system: SK-MEL-5
# SNB-75 = system: SNB-75
# SK-MEL-2 = system: SK-MEL-2
# RXF 393 = system: RXF 393
# MDA-MB-231 = system: MDA-MB-231
# IGROV-1 = system: IGROV-1
# CAKI-1 = system: CAKI-1
# EKVX = system: EKVX
# HCT-15 = system: HCT-15
# OVCAR-5 = system: OVCAR-5
# SW-620 = system: SW-620
# SK-OV-3 = system: SK-OV-3
# SNB-19 = system: SNB-19
# SR = system: SR
# U-251 = system: U-251
# NCI-H522 = system: NCI-H522
# OVCAR-3 = system: OVCAR-3
# UACC-62 = system: UACC-62
# HL-60 = system: HL-60
# KM12 = system: KM12
# OVCAR-4 = system: OVCAR-4
# NCI/ADR-RES = system: NCI/ADR-RES
# DU-145 = system: DU-145
# NCI-H226 = system: NCI-H226
# HCC 2998 = system: HCC 2998
# Malme-3M = system: Malme-3M
# HCT-116 = system: HCT-116
# TK-10 = system: TK-10
# UACC-257 = system: UACC-257
# NCI-H23 = system: NCI-H23
# MDA-N = system: MDA-N
# SF-295 = system: SF-295
# SK-MEL-28 = system: SK-MEL-28
# 786-0 = system: 786-0
# K562 = system: K562
# M14 = system: M14
# UO-31 = system: UO-31
# COLO 205 = system: COLO 205
# MDA-MB-435 = system: MDA-MB-435
# A498 = system: A498
# OVCAR-8 = system: OVCAR-8
# RPMI-8226 = system: RPMI-8226
# SF-539 = system: SF-539
# HOP-92 = system: HOP-92
# Hs-578T = system: Hs-578T
structure (smiles),measurement,setting,value
CN1CCN(C2=NCCO2)CC1,GI50,LOX IMVI,> 100 µM (inactive)
same,GI50,NCI-H460,> 100 µM (inactive)
same,GI50,SN12C,> 100 µM (inactive)
same,GI50,PC-3,> 100 µM (inactive)
same,GI50,A549,> 100 µM (inactive)
same,GI50,MOLT-4,> 100 µM (inactive)
same,GI50,HT-29,> 100 µM (inactive)
same,GI50,MCF7,> 100 µM (inactive)
same,GI50,CCRF-CEM,> 100 µM (inactive)
same,GI50,ACHN,> 100 µM (inactive)
same,GI50,T47D,> 100 µM (inactive)
same,GI50,SF-268,> 100 µM (inactive)
same,GI50,HOP-62,> 100 µM (inactive)
same,GI50,SK-MEL-5,> 100 µM (inactive)
same,GI50,SNB-75,> 100 µM (inactive)
same,GI50,SK-MEL-2,> 100 µM (inactive)
same,GI50,RXF 393,> 100 µM (inactive)
same,GI50,MDA-MB-231,> 100 µM (inactive)
same,GI50,IGROV-1,> 100 µM (inactive)
same,GI50,CAKI-1,> 100 µM (inactive)
same,GI50,EKVX,> 100 µM (inactive)
same,GI50,HCT-15,> 100 µM
same,GI50,OVCAR-5,> 100 µM (inactive)
same,GI50,SW-620,> 100 µM (inactive)
same,GI50,SK-OV-3,> 100 µM (inactive)
same,GI50,SNB-19,> 100 µM (inactive)
same,GI50,SR,> 100 µM (inactive)
same,GI50,U-251,> 100 µM (inactive)
same,GI50,NCI-H522,> 100 µM (inactive)
same,GI50,OVCAR-3,> 100 µM (inactive)
same,GI50,UACC-62,> 100 µM (inactive)
same,GI50,HL-60,> 100 µM (inactive)
same,GI50,KM12,> 100 µM (inactive)
same,GI50,OVCAR-4,> 100 µM (inactive)
same,GI50,NCI/ADR-RES,> 100 µM (inactive)
same,GI50,DU-145,> 100 µM (inactive)
same,GI50,NCI-H226,> 100 µM (inactive)
same,GI50,HCC 2998,> 100 µM (inactive)
same,GI50,Malme-3M,> 100 µM (inactive)
same,GI50,HCT-116,> 100 µM (inactive)
same,GI50,TK-10,> 100 µM (inactive)
same,GI50,UACC-257,> 100 µM (inactive)
same,GI50,NCI-H23,> 100 µM (inactive)
same,GI50,MDA-N,> 100 µM (inactive)
same,GI50,SF-295,> 100 µM (inactive)
same,GI50,SK-MEL-28,> 100 µM (inactive)
same,GI50,786-0,> 100 µM (inactive)
same,GI50,K562,> 100 µM (inactive)
same,GI50,M14,> 100 µM (inactive)
same,GI50,UO-31,> 100 µM (inactive)
same,GI50,COLO 205,> 100 µM (inactive)
same,GI50,MDA-MB-435,> 100 µM (inactive)
same,GI50,A498,> 100 µM (inactive)
same,GI50,OVCAR-8,> 100 µM (inactive)
same,GI50,RPMI-8226,> 100 µM (inactive)
same,GI50,SF-539,> 100 µM (inactive)
CSC1=N/C(=C\c2ccccc2)C(=O)N1CN1CCCCC1,GI50,LOX IMVI,38.5 µM (inactive)
same,GI50,HOP-92,11.7 µM (inactive)
same,GI50,SN12C,> 100 µM (inactive)
same,GI50,PC-3,55.5 µM (inactive)
same,GI50,A549,87.7 µM (inactive)
same,GI50,MOLT-4,37.5 µM (inactive)
same,GI50,HT-29,22.5 µM (inactive)
same,GI50,MCF7,24.6 µM (inactive)
same,GI50,CCRF-CEM,52.5 µM (inactive)
same,GI50,ACHN,34.9 µM (inactive)
same,GI50,SF-268,55.5 µM (inactive)
same,GI50,HOP-62,> 100 µM (inactive)
same,GI50,SK-MEL-5,43.1 µM (inactive)
same,GI50,SNB-75,56.1 µM (inactive)
same,GI50,SK-MEL-2,> 100 µM (inactive)
same,GI50,MDA-MB-231,86.3 µM (inactive)
same,GI50,IGROV-1,38.7 µM (inactive)
same,GI50,EKVX,51.1 µM (inactive)
same,GI50,HCT-15,> 10 µM
same,GI50,OVCAR-5,> 100 µM (inactive)
same,GI50,SW-620,44.4 µM (inactive)
same,GI50,SK-OV-3,> 100 µM (inactive)
same,GI50,SNB-19,46.1 µM (inactive)
same,GI50,SR,31.3 µM (inactive)
same,GI50,U-251,72.6 µM (inactive)
same,GI50,NCI-H522,42.3 µM (inactive)
same,GI50,OVCAR-3,> 100 µM (inactive)
same,GI50,UACC-62,58.3 µM (inactive)
same,GI50,KM12,65 µM (inactive)
same,GI50,OVCAR-4,16.4 µM (inactive)
same,GI50,NCI/ADR-RES,20 µM (inactive)
same,GI50,DU-145,> 100 µM (inactive)
same,GI50,NCI-H226,35.7 µM (inactive)
same,GI50,Malme-3M,54.5 µM (inactive)
same,GI50,HCT-116,33.2 µM (inactive)
same,GI50,TK-10,99.3 µM (inactive)
same,GI50,NCI-H23,76.6 µM (inactive)
same,GI50,MDA-N,88.3 µM (inactive)
same,GI50,SF-295,> 100 µM (inactive)
same,GI50,SK-MEL-28,> 100 µM (inactive)
same,GI50,786-0,42.2 µM (inactive)
same,GI50,K562,26.7 µM (inactive)
same,GI50,M14,61.7 µM (inactive)
same,GI50,Hs-578T,36.4 µM (inactive)
same,GI50,UO-31,39.5 µM (inactive)
same,GI50,COLO 205,65.5 µM (inactive)
same,GI50,MDA-MB-435,49.7 µM (inactive)
same,GI50,A498,77.8 µM (inactive)
same,GI50,OVCAR-8,30.1 µM (inactive)
same,GI50,RPMI-8226,27.4 µM (inactive)
CCc1cc(-c2nsc(=O)o2)c(S(=O)(=O)CC)s1,GI50,LOX IMVI,56.6 µM (inactive)
same,GI50,HOP-92,98.9 µM (inactive)
same,GI50,NCI-H460,> 100 µM (inactive)
same,GI50,SN12C,> 100 µM (inactive)
same,GI50,PC-3,33.4 µM (inactive)
same,GI50,A549,> 100 µM (inactive)
same,GI50,MOLT-4,> 10 µM (inactive)
same,GI50,HT-29,84.9 µM (inactive)
same,GI50,MCF7,26.7 µM (inactive)
same,GI50,CCRF-CEM,32.6 µM (inactive)
same,GI50,ACHN,> 100 µM (inactive)
same,GI50,T47D,76.7 µM (inactive)
same,GI50,SF-268,86.9 µM (inactive)
same,GI50,HOP-62,> 100 µM (inactive)
same,GI50,SK-MEL-5,> 100 µM (inactive)
same,GI50,SNB-75,> 100 µM (inactive)
same,GI50,SK-MEL-2,95.5 µM (inactive)
same,GI50,IGROV-1,34 µM (inactive)
same,GI50,CAKI-1,56.9 µM (inactive)
same,GI50,EKVX,> 100 µM (inactive)
same,GI50,HCT-15,52.7 µM
same,GI50,OVCAR-5,> 100 µM (inactive)
same,GI50,SW-620,61 µM (inactive)
same,GI50,SK-OV-3,> 100 µM (inactive)
same,GI50,SNB-19,77.8 µM (inactive)
same,GI50,SR,38.3 µM (inactive)
same,GI50,U-251,> 100 µM (inactive)
same,GI50,NCI-H522,22.2 µM (inactive)
same,GI50,OVCAR-3,> 100 µM (inactive)
same,GI50,HL-60,0.951 µM (active)
same,GI50,KM12,38.4 µM (inactive)
same,GI50,OVCAR-4,> 100 µM (inactive)
same,GI50,NCI/ADR-RES,> 100 µM (inactive)
same,GI50,DU-145,> 100 µM (inactive)
same,GI50,NCI-H226,> 100 µM (inactive)
same,GI50,HCC 2998,37.2 µM (inactive)
same,GI50,HCT-116,43.3 µM (inactive)
same,GI50,TK-10,> 100 µM (inactive)
same,GI50,NCI-H23,45.4 µM (inactive)
same,GI50,MDA-N,75 µM (inactive)
same,GI50,SF-295,> 100 µM (inactive)
same,GI50,SK-MEL-28,49.3 µM (inactive)
same,GI50,786-0,> 100 µM (inactive)
same,GI50,K562,37.2 µM (inactive)
same,GI50,M14,76 µM (inactive)
same,GI50,Hs-578T,> 100 µM (inactive)
same,GI50,UO-31,> 100 µM (inactive)
same,GI50,COLO 205,> 100 µM (inactive)
same,GI50,MDA-MB-435,55.3 µM (inactive)
same,GI50,A498,> 100 µM (inactive)
same,GI50,OVCAR-8,88.1 µM (inactive)
same,GI50,RPMI-8226,49.4 µM (inactive)
same,GI50,SF-539,> 100 µM (inactive)
